Data published in patent publication US12454536B2, “Deuterated 7-(3-(4-(2-([18F]fluoro)ethoxy)phenyl)propyl)-2-(furan-2-yl)-7H- pyrazolo [4,3-e][1,2,4]triazolo[1,5-C]pyrimidine-5-amine derivatives” (HELMHOLTZ-ZENTRUM DRESDEN-ROSSENDORF E.V., priority 2019, dated 2025).

How the values were obtained:
hA1 = hA1 (Homo sapiens, UniProt P30542); assay: biochemical
[1] = In-vivo metabolite study in female CD-1 mice (radio-HPLC); settings: for intact radiotracer in the brain / intact radiotracer in the plasma: radio-HPLC
Experimental: In the in-vivo metabolite study in female CD-1 mice after 15 min p.i. in the brain 93% (radio-HPLC, n=3, extraction yield 98%) and in the plasma 79% (radio-HPLC, n=3, extraction yield 83%) of intact radiotracers have been detected.

hA2A = hA2A (Homo sapiens, UniProt P29274); assay: Affinity for human adenosine A2A receptor (Ki); type: binding
Sequence of hA2A (P29274 whole entry): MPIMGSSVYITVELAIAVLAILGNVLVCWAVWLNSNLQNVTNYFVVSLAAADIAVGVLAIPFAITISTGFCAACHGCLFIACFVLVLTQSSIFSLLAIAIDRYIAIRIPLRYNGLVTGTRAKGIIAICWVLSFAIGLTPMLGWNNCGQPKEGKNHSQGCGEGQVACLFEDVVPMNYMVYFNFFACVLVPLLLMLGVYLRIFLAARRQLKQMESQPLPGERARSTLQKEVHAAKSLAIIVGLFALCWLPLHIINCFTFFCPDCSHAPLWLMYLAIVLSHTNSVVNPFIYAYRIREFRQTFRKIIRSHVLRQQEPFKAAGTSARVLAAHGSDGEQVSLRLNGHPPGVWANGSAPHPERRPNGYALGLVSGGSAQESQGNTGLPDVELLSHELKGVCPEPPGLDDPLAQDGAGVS

[2] = Stability of radiotracer in solutions and porcine plasma; type: in vitro ADME; settings: 37° C., one hour
Experimental: [^18F]FLUDA has shown to be stable in a sodium chloride, PBS, n-octanol solution and in porcine plasma at 37° C. for one hour (PBS=phosphate buffered salt solution). Using the conventional “Shake-flask” method a log D74=2.01±0.07 (n=3) has been established.

adenosine A2A receptors = adenosine A2A receptors (Mus musculus, UniProt Q60613); assay: Radiotracer affinity (Kd, Bmax); type: binding; settings: n=5
Sequence of adenosine A2A receptors (Q60613 whole entry): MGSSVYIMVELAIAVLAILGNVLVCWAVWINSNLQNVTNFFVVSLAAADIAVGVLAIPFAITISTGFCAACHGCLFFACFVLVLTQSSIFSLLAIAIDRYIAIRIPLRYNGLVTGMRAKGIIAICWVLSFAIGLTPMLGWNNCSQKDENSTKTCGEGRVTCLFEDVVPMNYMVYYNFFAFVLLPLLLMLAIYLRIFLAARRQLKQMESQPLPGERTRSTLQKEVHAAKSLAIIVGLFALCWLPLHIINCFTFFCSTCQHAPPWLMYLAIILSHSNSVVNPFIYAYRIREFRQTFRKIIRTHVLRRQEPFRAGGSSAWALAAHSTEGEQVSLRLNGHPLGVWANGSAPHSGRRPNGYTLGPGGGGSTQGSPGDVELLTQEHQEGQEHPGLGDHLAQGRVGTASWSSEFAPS

[3] = PET study in healthy CD-1 mice; type: in vivo; settings: striatum, 15 min p.i., n=3
striatum (brain slices) = assay: In-vitro autoradiography in mouse brain slices; type: binding; settings: brain slices of mice
[4] = female CD-1 mice, 15 min p.i., n=3
[5] = repeated study (Example 6A / Comparison example 1A)
[6] = further tests, taking into account the above data, n=3

Sequence of hA1 (P30542 whole entry): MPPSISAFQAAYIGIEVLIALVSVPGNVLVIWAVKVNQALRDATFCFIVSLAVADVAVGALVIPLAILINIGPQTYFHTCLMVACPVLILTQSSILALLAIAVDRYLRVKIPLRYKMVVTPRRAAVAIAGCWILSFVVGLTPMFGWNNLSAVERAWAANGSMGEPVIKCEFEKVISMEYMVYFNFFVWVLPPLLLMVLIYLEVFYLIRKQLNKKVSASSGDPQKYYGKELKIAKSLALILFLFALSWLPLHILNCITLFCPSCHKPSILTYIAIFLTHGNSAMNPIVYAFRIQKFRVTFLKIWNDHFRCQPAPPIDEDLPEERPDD

Compound | Ki (hA1; n=4) [µM] | intact radiotracer in the brain [1, 4] [%] | intact radiotracer in the plasma [1, 4] [%] | intact radiotracer in the brain [1, 5] [%] | intact radiotracer in the plasma [1, 5] [%] | Ki (hA2A; first determination) [µM] | Ki (hA2A; [6]) [µM] | Ki (hA1; first determination) [µM] | Ki (hA1; [6]) [µM] | stability in PBS [2] | stability in n-octanol solution [2] | stability in porcine plasma [2] | stability in sodium chloride solution [2] | Bmax (adenosine A2A receptors) [fmol/mg] | cerebral uptake SUV [3] | change of the radiotracer by A2A-selective ligands (striatum (brain slices)) | enrichment of the radiotracer in the target region (striatum) (striatum (brain slices)) | metabolic stability compared to 18F-labeled compound D ([1]; mouse, in vivo)
Nc1nc2c(cnn2CCCc2ccc(OCC[18F])cc2)c2nc(-c3ccco3)nn12 (single isomer, unassigned) [[^18F]D, 7-(3-(4-(2-([^18F]fluoro)ethoxy)phenyl)propyl)-2-(furan-2-yl)-7H-pyrazolo[4,3-e][1,2,4]triazolo[1,5-c]pyrimidine-5-amine, reference compound] | 0.203 | 68 | 70 | 71 | 41 |  |  |  |  |  |  |  |  |  |  |  |  | 
[2H]C([2H])(F)C([2H])([2H])Oc1ccc(CCCn2ncc3c2nc(N)n2nc(-c4ccco4)nc32)cc1 (single isomer, unassigned) [FLUDA, 7-(3-(4-(2-(fluoro)ethoxy-1,1,2,2-d4)phenyl)propyl)-2-(furan-2-yl)-7H-pyrazolo[4,3-e][1,2,4]triazolo[1,5-c]pyrimidine-5-amine] |  |  |  |  |  | 0.000609 | 0.00074 ± 0.00026 | 0.767 | > 1 |  |  |  |  |  |  |  |  | 
[2H]C([2H])([18F])C([2H])([2H])Oc1ccc(CCCn2ncc3c2nc(N)n2nc(-c4ccco4)nc32)cc1 [[^18F]FLUDA, 7-(3-(4-(2-([^18F]fluoro)ethoxy-1,1,2,2-d4)phenyl)propyl)-2-(furan-2-yl)-7H-pyrazolo[4,3-e][1,2,4]triazolo[1,5-c]pyrimidine-5-amine] |  | 93 | 79 | 100 | 82 |  |  |  |  | stable | stable | stable | stable | 556 ± 143 | 0.8 | change of the radiotracer by means of A2A-selective ligands | selective enrichment | significantly higher
